Data: article PMC3618506 (Nature, 2013)

B1: Strep-tagged full-length Fbxl3 (natural protein)
chain: MKRGGRDSDRNSSEEGTAEKSKKLRTTNEHSQTCDWGNLLQDIILQVFKYLPLLDRAHASQVCRNWNQVFHMPDLWRCFEFELNQPATSYLKATHPELIKQIIKRHSNHLQYVSFKVDSSKESAEAACDILSQLVNCSLKTLGLISTARPSFMDLPKSHFISALTVVFVNSKSLSSLKIDDTPVDDPSLKVLVANNSDTLKLLKMSSCPHVSPAGILCVADQCHGLRELALNYHLLSDELLLALSSEKHVRLEHLRIDVVSENPGQTHFHTIQKSSWDAFIRHSPKVNLVMYFFLYEEEFDPFFRYEIPATHLYFGRSVSKDVLGRVGMTCPRLVELVVCANGLRPLDEELIRIAERCKNLSAIGLGECEVSCSAFVEFVKMCGGRLSQLSIMEEVLIPDQKYSLEQIHWEVSKHLGRVWFPDMMPTW

Legend:
mCRY2-PHR = molecular target: T1, mCRY2-PHR (Mus musculus, UniProt Q9R194); test: quenching of FAD fluorescence; type: binding
T1 sequence (Q9R194 1-512): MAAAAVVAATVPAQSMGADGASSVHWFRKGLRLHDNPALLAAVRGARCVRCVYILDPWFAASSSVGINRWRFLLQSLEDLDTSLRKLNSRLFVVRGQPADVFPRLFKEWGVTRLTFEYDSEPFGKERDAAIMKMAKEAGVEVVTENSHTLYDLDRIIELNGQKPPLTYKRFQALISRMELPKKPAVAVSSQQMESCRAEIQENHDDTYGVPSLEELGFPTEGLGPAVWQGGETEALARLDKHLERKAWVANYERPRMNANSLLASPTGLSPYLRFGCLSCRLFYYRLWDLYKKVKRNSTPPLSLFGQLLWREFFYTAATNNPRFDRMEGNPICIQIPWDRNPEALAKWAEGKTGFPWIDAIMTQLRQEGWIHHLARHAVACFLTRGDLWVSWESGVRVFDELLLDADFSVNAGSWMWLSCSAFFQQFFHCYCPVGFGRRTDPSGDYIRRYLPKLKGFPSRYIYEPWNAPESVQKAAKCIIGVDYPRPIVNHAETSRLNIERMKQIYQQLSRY

GST-tagged mCRY2 (1-544) = molecular target: T2, GST-tagged mCRY2 (1-544) (mouse, UniProt Q9R194 1-544); test: pull-down
T2 sequence: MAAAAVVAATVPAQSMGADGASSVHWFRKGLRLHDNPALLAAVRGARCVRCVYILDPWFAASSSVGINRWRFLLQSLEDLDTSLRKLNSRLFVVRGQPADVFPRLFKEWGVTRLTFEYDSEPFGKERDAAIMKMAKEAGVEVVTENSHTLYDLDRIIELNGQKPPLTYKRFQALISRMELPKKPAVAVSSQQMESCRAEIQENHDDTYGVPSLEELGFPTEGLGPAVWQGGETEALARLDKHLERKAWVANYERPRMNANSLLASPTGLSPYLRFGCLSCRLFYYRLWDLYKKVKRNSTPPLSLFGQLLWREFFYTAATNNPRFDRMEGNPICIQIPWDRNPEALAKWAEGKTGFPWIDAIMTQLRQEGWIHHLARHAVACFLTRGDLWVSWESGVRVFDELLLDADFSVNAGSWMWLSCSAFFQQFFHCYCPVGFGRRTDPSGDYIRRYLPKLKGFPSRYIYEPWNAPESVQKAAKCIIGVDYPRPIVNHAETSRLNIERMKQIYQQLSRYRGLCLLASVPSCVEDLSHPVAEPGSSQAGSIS

| Molecule | Kd (mCRY2-PHR) | binding result (GST-tagged mCRY2 (1-544)) |
| --- | --- | --- |
| Cc1cc2nc3c(=O)[nH]c(=O)nc-3n(C[C@H](O)[C@H](O)[C@H](O)COP(=O)(O)OP(=O)(O)OC[C@H]3O[C@@H](n4cnc5c(N)ncnc54)[C@H](O)[C@@H]3O)c2cc1C [FAD] | ~40 µM |  |
| B1 |  | binds |
